Assay results: patent publication US20250109134A1 (Ascentage Pharma (Suzhou) Co., Ltd., priority 2022, published 2025)

What was measured:
Type in all cases: physicochemical
[1] = Stability study, content and related substances (TRS, total impurity content) by HPLC
Method: In the present invention, the HPLC (high performance liquid chromatography) test parameters are set as follows:
Then, the sample flasks were opened to air (sealed with aluminum foil punctured with small holes) and placed in constant temperature and humidity cabinets at high temperature (60° C.), at room temperature and high humidity ([…]), at RT/75% RH, and at 40° C./75% RH for 30 days, respectively, […]

[2] = Polymorph screening (suspension, anti-solvent, gas-liquid diffusion, slow volatilization methods), resulting form by XRPD; details: for Crystalline form: suspension method; for XRPD results: anti-solvent method, methanol solution, no precipitation, open-to-air volatilization; for Crystalline form results: 40° C., 3 days, from crystalline form A of sulfate salt
Method: The sample was quickly centrifuged (6000 rpm, 5 min) to remove a supernatant. The resulting precipitate was subjected to vacuum drying (40° C., −0.1 MPa) for 20 h, followed by physical characterization.
The resulting precipitate was subjected to vacuum drying at 40° C. for 20 h, followed by physical characterization.
No clear solution was obtained, and the sample was still undissolved after 1 mL of solvent was added. Then, 500 μL of poor solvent (acetone, ACN, MeOH, EtOAc, THE, or […]) was added, and 40 mg of the sample was added to perform an experiment by a suspension method. All suspension samples were stirred at 50° C. for 2 days and quickly centrifuged (6000 rpm, 5 min) to remove a supernatant. The resulting solid was subjected to vacuum drying at 40° C. for 20 h, followed by physical characterization.
The compound of formula I was subjected to polymorph screening with DCM as a good solvent and with MeOH, EtOH, THE, or EA as an anti-solvent, and was dissolved in both DCM and MeOH systems. The suspension sample was stirred for 2 days and quickly centrifuged to remove a supernatant. The resulting precipitate was subjected to vacuum drying at 25° C. for 20 h, followed by physical characterization.
The resulting precipitate was subjected to vacuum drying at room temperature for 20 h, followed by physical characterization.
The resulting precipitate was subjected to vacuum drying for 20 h.
Sonication was performed for 1 min to obtain a clear solution, which was filtered through a 0.22 μm filter membrane and aliquoted into seven 8 mL glass flasks. An anti-solvent was added until precipitation occurred. The sample was stirred at room temperature for 1 day and quickly centrifuged. The resulting solid precipitate was subjected to vacuum drying.
Then, an anti-solvent was added until precipitation occurred, and the mixture was stirred at room temperature overnight and quickly centrifuged (6000 rpm, 6 min) to remove a supernatant. The resulting precipitate was subjected to vacuum drying for 20 h.
Then, the solution was added to a 20 mL glass flask containing 2 mL of an anti-solvent (shown in the following table), and the flask was tightly capped at room temperature and placed in a fume hood for diffusion. When precipitation occurred, the flask was taken out, and the resulting precipitate was subjected to vacuum drying for 20 h.
The flask placed in a fume hood at room temperature for diffusion. When precipitation occurred, the flask was taken out, and the resulting precipitate was subjected to vacuum drying for 20 h.
The mixture was stirred at 50° C. or room temperature for 6 days and quickly centrifuged (6000 rpm, […]) to remove a supernatant. The resulting precipitate was subjected to vacuum drying for 20 h.

[3] = Dynamic vapor sorption (DVS) hygroscopicity test; details: summary of forms
Excerpt: In the present invention, the DVS test parameters are set as follows: […]

[4] = solvent ACN, suspension, 2 days, from crystalline form B
[5] = solvent ACN—H2O = 1-1, suspension, 2 days, from crystalline form B
[6] = solvent Acetone-H2O = 1-2, suspension, 2 days, from crystalline form B
[7] = solvent Acetone, suspension, 2 days, from crystalline form B
[8] = solvent EtOH, suspension, 2 days, from crystalline form B
[9] = solvent EtOH—H2O 1-1, suspension, 2 days, from crystalline form B
[10] = solvent EtOH—H2O = 3-1, suspension, 2 days, from crystalline form B
[11] = solvent H2O, suspension, 2 days, from crystalline form B
[12] = solvent MTBE, suspension, 2 days, from crystalline form B
[13] = solvent MeOH, suspension, 2 days, from crystalline form B
[14] = solvent MeOH—H2O 1-1, suspension, 2 days, from crystalline form B
[15] = solvent THF, suspension, 2 days, from crystalline form B
[16] = solvent 1,4-Dixoane, suspension, 6 days

**Q.** Which results are given for `CC(C)N1Cc2cc(C(F)(F)F)ncc2-c2cnc(NCc3c(F)ccc4c3CCO4)n3cnc(c23)C1=O.Cl` [Crystalline form A of hydrochloride salt]?
**A.** TRS(%) ([1]; 40° C./75RH %-5 d, open storage): 0.30%; TRS(%) ([1]; 40° C./75RH %- 10 d, open storage): 0.28%; TRS(%) ([1]; 40° C./75RH %- 30 d, open storage): 0.28%; TRS(%) ([1]; 60° C.-5 d, open storage): 0.28%; TRS(%) ([1]; 60° C.-10 d, open storage): 0.34%; TRS(%) ([1]; 60° C.-30 d, open storage): 0.27%; TRS(%) ([1]; Initial, TRS = total impurity content, HPLC): 0.31%; TRS(%) ([1]; RT/75% RH 7 d, open storage): 0.26%; TRS(%) ([1]; RT/75% RH 10 d, open storage): 0.26%; TRS(%) ([1]; RT/75% RH 30 d, open storage): 0.37%; TRS(%) ([1]; RT/90RH %-5 d, open storage): 0.28%; TRS(%) ([1]; RT/90RH %-10 d, open storage): 0.26%; TRS(%) ([1]; RT/90RH %-30 d, open storage): 0.27%

**Q.** For `CC(C)N1Cc2cc(C(F)(F)F)ncc2-c2cnc(NCc3c(F)ccc4c3CCO4)n3cnc(c23)C1=O` [crystalline form B], which “Crystalline form results 25° C.” value [2, 4] is on record?
**A.** Crystalline form A

**Q.** What about the “Crystalline form results 50° C.” value [2, 4] of the same molecule?
**A.** Crystalline form A

**Q.** And the “Crystalline form results 25° C.” value [2, 5]?
**A.** Crystalline form A

**Q.** What about the “Crystalline form results 50° C.” value [2, 5] of the same molecule?
**A.** Crystalline form A

**Q.** And the “Crystalline form results 25° C.” value [2, 6]?
**A.** Crystalline form B

**Q.** What about the “Crystalline form results 50° C.” value [2, 6] of the same molecule?
**A.** Crystalline form B

**Q.** What about the “Crystalline form results 25° C.” value [2, 7] of the same molecule?
**A.** Crystalline form B

**Q.** What about the “Crystalline form results 50° C.” value [2, 7] of the same molecule?
**A.** Crystalline form B

**Q.** And the “Crystalline form results 50° C.” value ([2]; solvent EtOAc, suspension, 2 days, from crystalline form B)?
**A.** Crystalline form B

**Q.** What about the “Crystalline form results 25° C.” value [2, 8] of the same molecule?
**A.** Crystalline form B

**Q.** And the “Crystalline form results 50° C.” value [2, 8]?
**A.** Crystalline form A

**Q.** And the “Crystalline form results 25° C.” value [2, 9]?
**A.** Crystalline form B

**Q.** What about the “Crystalline form results 50° C.” value [2, 9] of the same molecule?
**A.** Crystalline form A

**Q.** What about the “Crystalline form results 25° C.” value [2, 10] of the same molecule?
**A.** Crystalline form B

**Q.** And the “Crystalline form results 50° C.” value [2, 10]?
**A.** Crystalline form A

**Q.** And the “Crystalline form results 25° C.” value [2, 11]?
**A.** Crystalline form B

**Q.** And the “Crystalline form results 50° C.” value [2, 11]?
**A.** Crystalline form B

**Q.** And the “Crystalline form results 25° C.” value ([2]; solvent Heptane, suspension, 2 days, from crystalline form B)?
**A.** Crystalline form B

**Q.** And the “Crystalline form results 25° C.” value [2, 12]?
**A.** Crystalline form E

**Q.** And the “Crystalline form results 50° C.” value [2, 12]?
**A.** Crystalline form G

**Q.** What about the “Crystalline form results 25° C.” value [2, 13] of the same molecule?
**A.** Crystalline form A

**Q.** And the “Crystalline form results 50° C.” value [2, 13]?
**A.** Crystalline form A

**Q.** What about the “Crystalline form results 25° C.” value [2, 14] of the same molecule?
**A.** Crystalline form F

**Q.** And the “Crystalline form results 50° C.” value [2, 14]?
**A.** Crystalline form A

**Q.** What about the “Crystalline form results 25° C.” value ([2]; solvent MeOH—H2O = 3-1, suspension, 2 days, from crystalline form B) of the same molecule?
**A.** Crystalline form A

**Q.** What about the “Crystalline form results 25° C.” value [2, 15] of the same molecule?
**A.** Crystalline form B

**Q.** What about the “Crystalline form results 50° C.” value [2, 15] of the same molecule?
**A.** Crystalline form B

**Q.** And the “Crystalline form results 25° C.” value ([2]; solvent Toluene, suspension, 2 days, from crystalline form B)?
**A.** Toluene solvate

**Q.** Which “Evaluation results: hygroscopicity” value [3] does the source give for `CC(C)N1Cc2cc(C(F)(F)F)ncc2-c2cnc(NCc3c(F)ccc4c3CCO4)n3cnc(c23)C1=O.O=S(=O)(O)O` [Sulfate Crystalline form A] here?
**A.** Slight hygroscopicity

**Q.** For `CC(C)N1Cc2cc(C(F)(F)F)ncc2-c2cnc(NCc3c(F)ccc4c3CCO4)n3cnc(c23)C1=O`, which “Crystalline form results 50° C.” value [2, 16] is on record?
**A.** 1,4-dioxane solvate

**Q.** What about the “Crystalline form results Room temperature” value [2, 16] of the same molecule?
**A.** 1,4-dioxane solvate

**Q.** Which Crystalline form ([2]; solvent DCM/EA = 1-1, stirred 2 days) does the source give for `CC(C)N1Cc2cc(C(F)(F)F)ncc2-c2cnc(NCc3c(F)ccc4c3CCO4)n3cnc(c23)C1=O` [compound of formula I] here?
**A.** Crystalline form A

**Q.** What about the Crystalline form ([2]; solvent DCM/EtOH = 2-1, stirred 2 days) of the same molecule?
**A.** Crystalline form A

**Q.** What about the Crystalline form ([2]; solvent DCM/THF = 1-1, stirred 2 days) of the same molecule?
**A.** Crystalline form A

**Q.** What about the Crystalline form ([2]; solvent DCM, stirred 2 days) of the same molecule?
**A.** Crystalline form A

**Q.** And the Crystalline form ([2]; solvent DMF/H2O = 1/3, 50° C., 2 days)?
**A.** Crystalline form B + DMF solvate

**Q.** And the Crystalline form ([2]; solvent DMF, 50° C., 2 days)?
**A.** Crystalline form B + DMF solvate

**Q.** And the Crystalline form ([2]; solvent NMP/ACN = 1/3, 50° C., 2 days)?
**A.** N-methyl-2-pyrrolidone solvate

**Q.** What about the Crystalline form ([2]; solvent NMP/EtOAc = 1/3, 50° C., 2 days) of the same molecule?
**A.** N-methyl-2-pyrrolidone solvate

**Q.** What about the Crystalline form ([2]; solvent NMP/H2O = 1/3, 50° C., 2 days) of the same molecule?
**A.** Crystalline forms A + B

**Q.** What about the Crystalline form ([2]; solvent NMP/MeOH = 1/3, 50° C., 2 days) of the same molecule?
**A.** N-methyl-2-pyrrolidone solvate

**Q.** What about the Crystalline form ([2]; solvent NMP/THF = 1/3, 50° C., 2 days) of the same molecule?
**A.** N-methyl-2-pyrrolidone solvate

**Q.** What about the Crystalline form ([2]; solvent NMP/acetone = 1/3, 50° C., 2 days) of the same molecule?
**A.** N-methyl-2-pyrrolidone solvate

**Q.** What about the Crystalline form ([2]; solvent NMP, 50° C., 2 days) of the same molecule?
**A.** N-methyl-2-pyrrolidone solvate

**Q.** With `CC(C)N1Cc2cc(C(F)(F)F)ncc2-c2cnc(NCc3c(F)ccc4c3CCO4)n3cnc(c23)C1=O.O=S(=O)(O)O` as the molecule, how does the XRPD results ([2]; anti-solvent Acetone) read?
**A.** Crystalline form B

**Q.** What about the XRPD results ([2]; anti-solvent Heptane) of the same molecule?
**A.** Crystalline form A

**Q.** And the Crystalline form results ([2]; solvent 88% acetone, suspension)?
**A.** Crystalline form B

**Q.** And the Crystalline form results ([2]; solvent ACN, suspension)?
**A.** Crystalline form A of sulfate salt

**Q.** What about the Crystalline form results ([2]; solvent ACN—H2O = 1:1, suspension) of the same molecule?
**A.** Crystalline form A

**Q.** And the Crystalline form results ([2]; solvent Acetone, suspension)?
**A.** Crystalline form A of sulfate salt

**Q.** And the Crystalline form results ([2]; solvent DCM/MeOH = 1:1, suspension)?
**A.** Crystalline form A

**Q.** And the Crystalline form results ([2]; solvent EtOAc, suspension)?
**A.** Sulfate salt forming into sulfate

**Q.** What about the Crystalline form results ([2]; solvent EtOH, suspension) of the same molecule?
**A.** Sulfate salt forming into sulfate

**Q.** And the Crystalline form results ([2]; solvent EtOH—H2O = 3:1, suspension)?
**A.** Crystalline form A

**Q.** What about the Crystalline form results ([2]; solvent IPA, suspension) of the same molecule?
**A.** Sulfate salt forming into sulfate

**Q.** And the Crystalline form results ([2]; solvent MeOH, suspension)?
**A.** Crystalline form A

**Q.** What about the Crystalline form results ([2]; solvent MeOH—H2O = 3:1, suspension) of the same molecule?
**A.** Crystalline form A

**Q.** And the Crystalline form results ([2]; solvent THF, suspension)?
**A.** Crystalline form A of sulfate salt

**Q.** What about the Crystalline form results ([2]; solvent Toluene, suspension) of the same molecule?
**A.** Crystalline form A of sulfate salt
